From patent US11234979B2, “Heteroaryl compounds as muscarinic M1 receptor positive allosteric modulators” (SUVEN LIFE SCIENCES LIMITED, priority 2017, dated 2022) come the findings set out here.

Series [1] can be described thus: Rodent brain penetration study. Format: in vivo, Male Wistar rats. Conditions: male, Wistar, brain and plasma, po; rat, 3 mg/kg, p.o. @ 1.0 hr, brain-plasma ratio; read-out: Single dose Rat Brain Penetration (Cb/Cp). Here is the method: Rodent Brain Penetration Study
Male Wistar rats (260±40 grams) were used as experimental animals. Three animals were housed in each cage. Animals were given water and food ad libitum throughout the experiment and maintained on a 12 hours light/dark cycle.
Brain penetration was determined in discrete manner in rats. One day prior to dosing day, male Wistar rats were acclimatized and randomly grouped according to their weight. At each time point (0.5, 1 and 2 hours) n=3 animals were used.
The test compounds were suitably preformulated and administered orally at (free base equivalent) 3 mg/kg. Blood samples were removed via cardiac puncture by using isoflurane anesthesia. The animals were sacrificed to collect brain tissue. Plasma was separated and brain samples were homogenized and stored frozen at −20° C. until analysis. The concentrations of the test compounds in plasma and brain were determined using LC-MS/MS method.
The test compounds were quantified in plasma and brain homogenate by qualified LC-MS/MS method using suitable extraction technique. The test compounds were quantified in the calibration range of 1-500 ng/mL in plasma and brain homogenate. Study samples were analyzed using calibration samples in the batch and quality control samples spread across the batch.

Series [2] deals with T1, recombinant human Muscarinic M1 receptor (Homo sapiens, UniProt P11229).
T1 construct: expressed in transfected cells
T1 sequence (P11229 1-460): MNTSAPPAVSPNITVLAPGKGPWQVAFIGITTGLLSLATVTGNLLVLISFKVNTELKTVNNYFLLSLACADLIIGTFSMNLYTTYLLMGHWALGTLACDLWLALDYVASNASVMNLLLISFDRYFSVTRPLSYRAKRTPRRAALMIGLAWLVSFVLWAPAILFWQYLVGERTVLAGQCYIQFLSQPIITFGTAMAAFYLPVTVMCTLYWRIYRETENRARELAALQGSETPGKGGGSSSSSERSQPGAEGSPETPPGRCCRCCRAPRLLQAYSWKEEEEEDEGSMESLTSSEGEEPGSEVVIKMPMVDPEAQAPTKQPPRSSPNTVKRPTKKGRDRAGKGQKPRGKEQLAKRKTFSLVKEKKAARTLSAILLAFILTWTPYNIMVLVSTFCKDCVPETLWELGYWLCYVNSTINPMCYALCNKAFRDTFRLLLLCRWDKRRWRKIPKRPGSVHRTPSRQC
Put plainly: Allosteric potency EC50 for Muscarinic M1 receptor, CHO pCRE-Luc reporter assay with EC20 of acetylcholine. In kind it is cell-based. Conditions: CHO cells, in presence of EC20 of acetylcholine, 4 hours. In outline: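 Stable CHO line expressing human M1 receptor with CRE-driven luciferase, serum-starved overnight, then exposed to increasing compound concentrations plus an EC20 of acetylcholine in OptiMEM for 4 hours at 37° C. Luciferase read after lysis, normalized to maximal acetylcholine response; EC50 is concentration giving 50% stimulation.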
On the technique in general: Reporter assays use an easily measured gene product as a stand-in for the process of interest.

Series [3] deals with hippocampal theta oscillations. Nature of the series: Theta modulation in dorsal hippocampus of anesthetized rats in combination with donepezil. Format: in vivo, Male Wistar rats. Conditions: anesthetized rat, Example 32 1 mg/kg. From the text: Evaluation of Theta Modulation in Dorsal Hippocampus of Anesthetized Male Wistar
Male Wistar rats (240-320 g) were anesthetized by Intraperitoneal administration of urethane (1.2 to 1.5 g/kg) for implantation of a catheter in the left femoral vein. The animal was placed in a stereotaxic frame for implanting an electrode (stainless steel wire, Plastics One) into the dorsal hippocampus (AP: −3.8 mm; ML: +2.2 mm; DV: −2.5 mm; Paxinos and Watson, 2004). Bipolar stimulating electrode (untwisted stainless steel wires, separated by 0.75-1.0 mm at their tips, Plastics One) was implanted in the Nucleus Pontis Oralis (NPO; AP: −7.8 mm; ML: 1.8 mm; DV: −6.0 mm; Paxinos and Watson, 2004). Additionally one electrode was implanted into the cerebellum which served as a reference. Hippocampal θ rhythm was evoked via a 6-s electrical stimulation train (20-160 μA, 0.3-ms pulse duration, 250 Hz) delivered to the NPO at a rate of 0.01 trains/s with a Grass S88 stimulator and PSIU6 stimulus isolation unit (Grass Medical Instruments, Quincy, Mass.). EEG was recorded at a rate of 1000 Hz using Ponemah (Version 5.2) software and stored for off-line analysis using NeuroScore (Version 3.0). Baseline amplitude level was achieved by using the current required to elicit […] to 50% of the maximal amplitude under control conditions. After the stabilization period of one hour, baseline recording was done for 30 min followed by the treatment of vehicle or Example 32 (1 mg/kg, i.v.).
Power in the θ rhythm frequency in the stimulation period during the 30-min baseline period was calculated and the % changes in these measures post treatment were calculated. […] Statistical significance was considered at a p value less than 0.05.

`Cn1cc(-c2ccc(Cc3cc(C(=O)N[C@H]4CCCC[C@@H]4O)n4ncccc34)cc2)cn1` [Example 32, N-(cis-1S,2S-2-Hydroxycyclohexyl)-5-[4-(1-methyl-1H-pyrazol-4-yl)-benzyl]-pyrrolo [1,2-b]pyridazine-7-carboxamide]: in series [1], the Kp at 1 h is 0.15 ± 0.02. In series [2], the EC50 was found to be 0.066 µM. In series [3] (i.v. + donepezil 0.3 mg/kg), the “Mean area under the curve values (AUC) of θ power change, combination versus donepezil alone” value was “significantly higher compared to donepezil alone” and the “effect on θ power, combination treatment versus donepezil alone” value is “significantly higher than the donepezil alone”. The θ power levels result in series [3] (i.v. in combination with donepezil 0.3 mg/kg) is “significant increase”.

Usually EC50 stands for the midpoint of the concentration-response curve.
